This passage reports IC50 results from patent US4461775A, “Hydroxythioether fatty acid derivatives” (McNeilab, Inc., priority 1982, dated 1984).

The test system of assay [1] is guinea pig ileum (SRS-A induced contraction). Nature of the assay: guinea pig ileum: prevention of the contraction of guinea pig ileum caused by SRS-A. The settings on record: Cavia porcellus; SRS-A induced contraction of isolated guinea pig ileum; atropine and chlorpheniramine (1×10^-5 M) present; read-out: G.P. Ileum IC50. In kind it is cell-based. The procedure:
The tissue is exposed to 5 mg/ml histamine at 1-3 minute intervals until a reproducible response is obtained. Atropine (1×10^-5 M) and chlorpheniramine (1×10^-5 M) are added followed by 1-2 biological units of SRS-A. After washing the tissue, the response to BaCl2 (1×10^-3 M) was also noted.

For assay [2], the system named is guinea pig parenchymal strip (immunological release of SRS-A). Description: guinea pig parenchymal strip: prevention of the contraction of guinea pig parenchymal tissue by immunological release of SRS-A. The settings on record: Cavia porcellus; egg albumin challenge of sensitized guinea pig lung strip; chlorpheniramine (10^-4 M), indomethacin (10^-5 M), test compound 30 minutes prior. In kind it is cell-based. As to the method: The guinea pigs were sacrificed and lungs removed. Strips of subpleural parenchyma were prepared from the left and right diaphragmatic lobes and suspended in a tissue bath under 1 g of tension. After a one hour equilibration period, a dose response to histamine (10^-7 to 10^-4 M) induced contractions was performed to determine maximal contraction. The tissues were then washed and allowed to relax to baseline. Chlorpheniramine (10^-4 M), indomethacin (10^-5 M) and test compound were added 30 minutes prior to challenge with egg albumin. The response to antigen was measured in milligrams of tension.

A word on the IC50: it is the concentration that gives 50% inhibition.

The structures appear in SMILES notation.

As for `CCCCCCCCCCC[C@H](O)[C@H](CCCCC(=O)O)SCCC(=O)O` (relative stereo) [Example 2, Threo 6-(2-Carboxyethyl)thio-7-hydroxyoctadecanoic Acid], the IC50 in assay [1] is 0.24 µM; in assay [2], 80 µM. The corresponding values for `CCCCCCCCCCC[C@H](O)[C@H](CCCCC(=O)OC)SCCC(=O)OC` (relative stereo) [Example 1, Threo Methyl 7-Hydroxy-6{[2-(methoxycarbonyl)ethyl]thio}octadecanoate] are 1 µM and > 100 µM. For `CCCCCCCCCCC[C@H](O)[C@@H](CCCCC(=O)OC)SCCC(=O)OC` (relative stereo) [Example 4, Erythro Methyl 7-Hydroxy-6-{[2-(methoxycarbonyl)ethyl]-thio}octadecanoate], in assay [2], the IC50 was 10 µM. Regarding `CCCCCCCCCCCC(O)C(CCCCC(=O)OC)SC[C@H](N)C(=O)OC` (stereo partly drawn) [Example 3, Threo S-(6-Hydroxy-1-methoxycarbonyl-5-heptadecyl)-L-cysteine Methyl Ester], the IC50 was 1.3 µM in assay [1] and > 100 µM in assay [2].
